Test results reported in patent US20250360105A1, “USE OF ERGOTHIONEINE FOR ANTI-AGING” (NANJING NUTRABUILDING BIO-TECH CO., LTD., priority 2022, published 2025).

What was measured:
[1] = system: lamin A; assay: Taqman quantitative real-time PCR of lamin A mRNA in coronary artery endothelial cells of aging mice; format: in vivo; details: 56-week-old mice treated with EGT every day, compared to without EGT treated; FIG. 1
Method: (§1) 18 […]/6 male mice aged about 8 weeks, were randomly assigned to three study groups (GA, GB, GC). The total experimental time was 56 weeks, and the control group was consisted of 12 animals, and all of the animals were maintained in an animal facility room under controlled environmental conditions (22±1° C., 12 h-light/12 h dark cycle, free access to food and water). All procedures were carried out in accordance with institutional policies on experimental animal handling. Treatment details of the individual study groups were: Group A (GA): euthanized at the age of 10 weeks; Group B (GB): euthanized at the age of 56 weeks without EGT treated; Group C (GC): euthanized at the age of 56 weeks with EGT treated every day. For all the euthanized mice, formalin-fixed paraffin embedded 3 μm sections were prepared from the tissues of coronary artery, and were snap-frozen and stored at -80° C. Taqman quantitative real-time PCR was used for detection of progerin mRNA. Messenger RNA was extracted using RNeasy Mini Kit Plus (Qiagen, Valencia, CA). The Taqman probe was as described by Rodriguez et al. (Rodriguez, S., et al., Increased expression of the Hutchinson Gilford progeria syndrome truncated lamin A transcript during cell aging. 2009. 17(7): p. 928-937). The forward primer was [NT] ID NO: 1), and the reverse primer was [NT] ID NO: 2).

[2] = system: vascular and intracellular adhesion molecules in endothelial cells; details: Anticoli et al. 2010; cited from earlier work
[3] = system: lamin C; assay: Taqman quantitative real-time PCR of lamin C mRNA in coronary artery endothelial cells of aging mice; format: in vivo; details: 56-week-old mice treated with EGT every day, compared to without EGT treated; FIG. 1
[4] = system: pro-inflammatory cytokines IL-1α, IL-1β, IL-6, and TNF-α; assay: Quantification of pro-inflammatory cytokines in serum of aging mice using ELISA Array kit; format: in vivo; details: serum of 56-week-old mice, EGT compared to without EGT treatment, FIG. 2
Method: 18 […]/6 male mice aged about 8 weeks, were randomly assigned to three study groups (GA, GB, GC). The total experimental time was 56 weeks, and the control group was consisted of 12 animals, and all of the animals were maintained in an animal facility room under controlled environmental conditions (22±1° C., 12 h-light/12 h dark cycle, free access to food and water). All procedures were carried out in accordance with institutional policies on experimental animal handling. Treatment details of the individual study groups were: Group A (GA): euthanized at the age of 10 weeks; Group B (GB): euthanized at the age of 56 weeks without EGT treated; Group C (GC): euthanized at the age of 56 weeks with EGT treated every day.

[5] = system: progerin; assay: Taqman quantitative real-time PCR of progerin mRNA in coronary artery endothelial cells of aging mice; format: in vivo; details: 56-week-old mice treated with EGT every day, compared to without EGT treated; FIG. 1
Method: as §1

With C[N+](C)(C)[C@@H](Cc1c[nH]c(=S)[nH]1)C(=O)[O-] [EGT, Ergothioneine] as the compound, how does the “mRNA of lamin A in coronary artery endothelial cells” value [1] read?
Its value is “decrease”.

And the “IL-1β-induced expression of vascular and intracellular adhesion molecules” value [2]?
Its value is “inhibit”.

And the “mRNA of lamin C in coronary artery endothelial cells” value [3]?
The value was “decrease”.

And the “pro-inflammatory cytokines (IL-1α, IL-1β, IL-6, TNF-α)” value [4]?
Its value is “obvious decrease”.

And the “mRNA expression of progerin in coronary artery endothelial cells” value [5]?
Its value is “obvious decrease”.
